Results from ChEMBL document CHEMBL1139518, “A new structural motif for mu-opioid antagonists” (J Med Chem, 2005).
Where a SMILES comes first, the peptide text is derived from it.

Molecular target: Delta-type opioid receptor (Rattus norvegicus, UniProt P33533)
Assay: Inhibition of [3H][Ile5,6]-deltorphin I binding to rat Opioid receptor delta

Delta-type opioid receptor, sequence (P33533 whole entry): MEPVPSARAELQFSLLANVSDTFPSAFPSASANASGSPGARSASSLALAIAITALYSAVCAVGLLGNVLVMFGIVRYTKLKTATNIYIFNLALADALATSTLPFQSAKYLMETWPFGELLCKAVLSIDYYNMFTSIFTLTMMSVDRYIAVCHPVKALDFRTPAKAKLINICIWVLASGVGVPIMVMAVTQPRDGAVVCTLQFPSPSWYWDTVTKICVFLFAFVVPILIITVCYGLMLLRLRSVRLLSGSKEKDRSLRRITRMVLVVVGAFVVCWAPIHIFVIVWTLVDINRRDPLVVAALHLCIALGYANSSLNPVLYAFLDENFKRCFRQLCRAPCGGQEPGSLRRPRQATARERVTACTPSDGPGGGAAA

Q: Which Ki does the source give for `Cc1cc(O)cc(C)c1C[C@@H](N)CN1Cc2ccccc2C[C@H](NC(=O)Cc2ccccc2)C1=O` here?
A: Its Ki is 684 nM.

Q: Which Ki does the source give for `Cc1cc(O)cc(C)c1C[C@H](N)CN1Cc2ccccc2C[C@@H](NC(=O)Cc2ccccc2)C1=O` here?
A: Its Ki is 1100 nM.

Q: For `Cc1cc(O)cc(C)c1C[C@@H](N)CN1Cc2ccccc2C[C@@H](NC(=O)Cc2ccccc2)C1=O`, which Ki is on record?
A: Its Ki is 2900 nM.

Q: Which Ki does the source give for `Cc1cc(O)cc(C)c1C[C@H](N)CN1Cc2ccccc2C[C@H](NC(=O)Cc2ccccc2)C1=O` here?
A: The Ki was 25.8 nM.

Molecular target: Mu-type opioid receptor (Rattus norvegicus, UniProt P33535)
Assay: Inhibition of [3H]naloxone binding to rat Opioid receptor mu

Mu-type opioid receptor, sequence (P33535 whole entry): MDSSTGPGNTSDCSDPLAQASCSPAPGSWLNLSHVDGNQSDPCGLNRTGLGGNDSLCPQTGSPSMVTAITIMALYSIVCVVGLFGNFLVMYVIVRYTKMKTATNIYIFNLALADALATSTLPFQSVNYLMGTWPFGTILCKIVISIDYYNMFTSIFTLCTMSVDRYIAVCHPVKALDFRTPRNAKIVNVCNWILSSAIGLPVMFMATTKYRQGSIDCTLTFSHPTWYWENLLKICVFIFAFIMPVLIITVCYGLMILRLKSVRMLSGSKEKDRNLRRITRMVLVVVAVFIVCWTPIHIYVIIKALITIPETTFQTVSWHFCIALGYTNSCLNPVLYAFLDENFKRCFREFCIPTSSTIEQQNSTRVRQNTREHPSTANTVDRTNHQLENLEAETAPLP

Q: Which Ki does the source give for `Cc1cc(O)cc(C)c1C[C@@H](N)CN1Cc2ccccc2C[C@H](NC(=O)Cc2ccccc2)C1=O` here?
A: The Ki was 15.1 nM.

Q: Which Ki does the source give for `Cc1cc(O)cc(C)c1C[C@H](N)CN1Cc2ccccc2C[C@@H](NC(=O)Cc2ccccc2)C1=O` here?
A: The Ki was 23.5 nM.

Q: For `Cc1cc(O)cc(C)c1C[C@@H](N)CN1Cc2ccccc2C[C@@H](NC(=O)Cc2ccccc2)C1=O`, which Ki is on record?
A: The Ki was 41.7 nM.

Q: With `Cc1cc(O)cc(C)c1C[C@H](N)CN1Cc2ccccc2C[C@H](NC(=O)Cc2ccccc2)C1=O` as the compound, how does the Ki read?
A: Its Ki is 3.3 nM.

System: not listed separately
Assay: Antagonist activity of compound against TAPP-induced electrically evoked contractions of guinea pig ileum
Type: functional, Cavia porcellus

Q: Which Ke does the source give for `Cc1cc(O)cc(C)c1C[C@@H](N)CN1Cc2ccccc2C[C@H](NC(=O)Cc2ccccc2)C1=O` here?
A: The Ke was 207 nM.

Q: With `Cc1cc(O)cc(C)c1C[C@H](N)CN1Cc2ccccc2C[C@@H](NC(=O)Cc2ccccc2)C1=O` as the compound, how does the Ke read?
A: The Ke was 823 nM.

Q: Which Ke does the source give for `Cc1cc(O)cc(C)c1C[C@@H](N)CN1Cc2ccccc2C[C@@H](NC(=O)Cc2ccccc2)C1=O` here?
A: Its Ke is 85.1 nM.

Q: Which Ke does the source give for `Cc1cc(O)cc(C)c1C[C@H](N)CN1Cc2ccccc2C[C@H](NC(=O)Cc2ccccc2)C1=O` here?
A: The Ke was 38.6 nM.

Species: Mus musculus
Assay: Atagonist activity of compound against DPDPE-induced electrically evoked contractions of mouse vas deferens
Type: functional

Q: Which Ke does the source give for `N[C@@H](Cc1ccc(O)cc1)C(=O)N1Cc2ccccc2C[C@H]1C(=O)N[C@@H](Cc1ccccc1)C(=O)N[C@@H](Cc1ccccc1)C(=O)O` (HELM PEPTIDE1{Y.[Tic].F.F}$$$$V2.0) here?
A: The Ke was 4.8 nM.

Species: Mus musculus
Assay: Antagonist activity of compound against DPDPE-induced electrically evoked contractions of mouse vas deferens
Type: functional

Q: Which Ke does the source give for `Cc1cc(O)cc(C)c1C[C@@H](N)CN1Cc2ccccc2C[C@H](NC(=O)Cc2ccccc2)C1=O` here?
A: Its Ke is 185 nM.

Q: Which Ke does the source give for `Cc1cc(O)cc(C)c1C[C@H](N)CN1Cc2ccccc2C[C@@H](NC(=O)Cc2ccccc2)C1=O` here?
A: The Ke was 1590 nM.

Q: Which Ke does the source give for `Cc1cc(O)cc(C)c1C[C@@H](N)CN1Cc2ccccc2C[C@@H](NC(=O)Cc2ccccc2)C1=O` here?
A: Its Ke is 1440 nM.

Q: Which Ke does the source give for `Cc1cc(O)cc(C)c1C[C@H](N)CN1Cc2ccccc2C[C@H](NC(=O)Cc2ccccc2)C1=O` here?
A: Its Ke is 318 nM.

System: not listed separately
Assay: Ratio of antagonist activity against TAPP-induced contractions of guinea pig ileum to that of DPDPE-induced contractions of mouse vas deferens
Type: functional, Cavia porcellus

Q: With `Cc1cc(O)cc(C)c1C[C@@H](N)CN1Cc2ccccc2C[C@H](NC(=O)Cc2ccccc2)C1=O` as the compound, how does the Ratio read?
A: The Ratio was 1.666.

Q: With `Cc1cc(O)cc(C)c1C[C@H](N)CN1Cc2ccccc2C[C@@H](NC(=O)Cc2ccccc2)C1=O` as the compound, how does the Ratio read?
A: Its Ratio is 0.5.

Q: Which Ratio does the source give for `Cc1cc(O)cc(C)c1C[C@@H](N)CN1Cc2ccccc2C[C@@H](NC(=O)Cc2ccccc2)C1=O` here?
A: Its Ratio is 0.058.

Q: With `Cc1cc(O)cc(C)c1C[C@H](N)CN1Cc2ccccc2C[C@H](NC(=O)Cc2ccccc2)C1=O` as the compound, how does the Ratio read?
A: The Ratio was 0.125.
